The values below come from patent US6943187B2, “Pyrrolidine derivative hair growth compositions and uses” (GPI Nil Holdings, Inc., priority 1997, dated 2005).

“Also recorded” adds a separate entry of the source.

Chain of FKBP12 (P62942 whole entry, species assumed): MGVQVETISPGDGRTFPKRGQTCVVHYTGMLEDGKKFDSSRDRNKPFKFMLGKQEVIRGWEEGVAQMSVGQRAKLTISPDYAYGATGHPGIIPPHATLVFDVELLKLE

The first experiment addresses FKBP12 (Homo sapiens, UniProt P62942). The experiment is described as follows: Inhibition of peptidyl-prolyl isomerase (rotamase) activity, chymotrypsin-coupled assay (Ki test procedure). The experiment is classed as biochemical. The conditions noted are these: apparent Ki, rotamase inhibition of FKBP, substrate N-succinyl-Ala-Ala-Pro-Phe-p-nitroanilide. How it is done:
The inhibition of the prolyl peptidyl cis-trans isomerase activity of FKBP may be measured as an indicator of this affinity.
The cis-trans isomerization of an alanine-proline bond in a model substrate, N-succinyl-Ala-Ala-Pro-Phe-p-nitroanilide, is monitored spectrophotometrically in a chymotrypsin-coupled assay, which releases para-nitroanilide from the trans form of the substrate. The inhibition of this reaction caused by the addition of different concentrations of inhibitor is determined, and the data is analyzed as a change in first-order rate constant as a function of inhibitor concentration to yield the apparent K1 values.
In a plastic cuvette are added 950 ml of ice cold assay buffer (25 mM HEPES, pH 7.8, 100 mM NaCl), 10 ml of FKBP (2.5 mM in 10 mM Tris-Cl pH 7.5, 100 mM NaCl, 1 mM dithiothreitol), 25 ml of chymotrypsin (50 mg/ml in 1 mM HCl) and 10 ml of test compound at various concentrations in dimethyl sulfoxide.
With `CCC(C)(C)C(=O)C(=O)N1CCC[C@H]1C(=O)OCCCc1cc(OC)c(OC)c(OC)c1` [Compound 3, 3-(3,4,5-trimethoxyphenyl)-1-propyl (2S)-1-(3,3-dimethyl-1,2-dioxopentyl)-2-pyrrolidine-carboxylate], the Ki turned out to be 200 nM.
Same read-out and setting: for `CCC(C)(C)C(=O)C(=O)N1CCC[C@H]1C(=O)OCCCc1ccc2c(c1)OCO2` [Compound 5, 3-(4,5-methylenedioxyphenyl)-1-propyl (2S)-1-(3,3-dimethyl-1,2-dioxopentyl)-2-pyrrolidine-carboxylate] the value was 170 nM; for `CCC(C)(C)C(=O)C(=O)N1CCC[C@H]1C(=O)OCCCC1CCCCC1` [Compound 7, 3-cyclohexyl-1-propyl (2S)-1-(3,3-dimethyl-1,2-dioxopentyl)-2-pyrrolidinecarboxylate], 200 nM; for `CCC(C)(C)C(=O)C(=O)N1CCC[C@H]1C(=O)OCCCc1cc(OC)ccc1OC` [Compound 14, 3-(2,5-dimethoxyphenyl)-1-propyl (2S)-1-(3,3-dimethyl-1,2-dioxopentyl)-2-pyrrolidine-carboxylate], 250 nM.
Regarding `CCC(C)(C)C(=O)C(=O)N1CCC[C@H]1C(=O)OCCc1cc(OC)c(OC)c(OC)c1` [Compound 16, 2-(3,4,5-trimethoxyphenyl)-1-ethyl (2S)-1-(3,3-dimethyl-1,2-dioxopentyl)-2-pyrrolidine-carboxylate], the Ki turned out to be 120 nM.
Consider `CCC(C)(C)C(=O)C(=O)N1CCC[C@H]1C(=O)OCCCc1cccnc1` [Compound 17, 3-(3-Pyridyl)-1-propyl (2S)-1-(3,3-dimethyl-1,2-dioxopentyl)-2-pyrrolidinecarboxylate], for which the Ki came to 5 nM.
Regarding `CCC(C)(C)C(=O)C(=O)N1CCC[C@H]1C(=O)OCCCc1ccccn1` [Compound 18, 3-(2-Pyridyl)-1-propyl (2S)-1-(3,3-dimethyl-1,2-dioxopentyl)-2-pyrrolidinecarboxylate], the Ki amounted to 195 nM.
On the same count and under the same terms, for `CCC(C)(C)C(=O)C(=O)N1CCC[C@H]1C(=O)OCCCc1ccncc1` [Compound 19, 3-(4-Pyridyl)-1-propyl (2S)-1-(3,3-dimethyl-1,2-dioxopentyl)-2-pyrrolidinecarboxylate] the value was 23 nM; for `CC(C)(C)C(=O)C(=O)N1CCC[C@H]1C(=O)OCCCc1ccccc1` [Compound 21, 3-phenyl-1-propyl (2S)-1-(2-tert-butyl-1,2-dioxoethyl)-2-pyrrolidinecarboxylate], 95 nM; for `O=C(CCC1CCCCC1)C(=O)N1CCC[C@H]1C(=O)OCCCc1ccccc1` [Compound 22, 3-phenyl-1-propyl (2S)-1-(2-cyclohexyl-ethyl-1,2-dioxoethyl)-2-pyrrolidinecarboxylate], 1020 nM.
Same read-out and setting: for `O=C(CCC1CCCCC1)C(=O)N1CCC[C@H]1C(=O)OCCCc1cccnc1` [Compound 23, 3-(3-pyridyl)-1-propyl (2S)-1-(2-cyclohexylethyl-1,2-dioxoethyl)-2-pyrrolidinecarboxylate] the value was 1400 nM; for `CC(C)(C)C(=O)C(=O)N1CCC[C@H]1C(=O)OCCCc1cccnc1` [Compound 24, 3-(3-pyridyl)-1-propyl (2S)-1-(2-tert-butyl-1,2-dioxoethyl)-2-pyrrolidinecarboxylate], 3 nM.
The same measure, in the same setting: then `CCC(C)(C)C(=O)C(=O)N1CCC[C@H]1C(=O)OCCC(c1ccccc1)c1ccccc1` [Compound 25, 3,3-diphenyl-1-propyl (2S)-1-(3,3-dimethyl-1,2-dioxopentyl)-2-pyrrolidinecarboxylate], with 5 nM; and `CC(C)(C)C(=O)C(=O)N1CCC[C@H]1C(=O)OCCC(c1ccccc1)c1ccccc1` [Compound 28, 3,3-Diphenyl-1-propyl (2S)-1-(3,3-dimethyl-1,2-dioxobutyl)-2-pyrrolidinecarboxylate], with 5 nM.

The next experiment relates to C57 black 6 mice. In words: In vivo hair generation test, Experiment A (topical, shaved area). The settings on record: 30 μM topical in 20% propylene glycol, 3 applications over 5 days, after six weeks; listed as GPI 1046. The text has this:
Care was taken not to nick or cause abrasion to the underlaying dermal layers. The animals were in anagen growth phase, as indicated by the pinkish color of the skin. […] Hair growth was quantitated by the percent of shaved area covered by new hair growth during this time period.
For `CCC(C)(C)C(=O)C(=O)N1CCC[C@H]1C(=O)OCCCc1cccnc1` [Compound 17, 3-(3-Pyridyl)-1-propyl (2S)-1-(3,3-dimethyl-1,2-dioxopentyl)-2-pyrrolidinecarboxylate], the “hair regrowth in the shaved area” value was “essentially, complete hair regrowth; also recorded: essentially complete hair regrowth”.

A further experiment concerns hair growth.
Assay: not given
The conditions noted are these: topical, but not oral, application; cited from earlier work.
For the molecule `C=CC[C@@H]1/C=C(\C)C[C@H](C)C[C@H](OC)[C@H]2O[C@@](O)(C(=O)C(=O)N3CCCC[C@H]3C(=O)O[C@H](/C(C)=C/[C@@H]3CC[C@@H](O)[C@H](OC)C3)[C@H](C)[C@@H](O)CC1=O)[C@H](C)C[C@@H]2OC` [FK506], the “stimulation of hair growth” value is “stimulates hair growth in a dose-dependent manner”.
